Experimental data published in patent US5229381A, “Substituted azetidinones as anti-inflammatory and antidegenerative agents” (Merck & Co., Inc., priority 1991, dated 1993).
Where two headings read alike, the source gives them in different places.

Target: T1, human polymorphonuclear leukocyte elastase (Homo sapiens, UniProt P08246)
T1 construct: Crude extract of human polymorphonuclear leukocytes (PMN) containing elastase activity; endogenous in cells; host or cells: human polymorphonuclear leukocytes (crude extract)
T1 sequence (P08246 30-247 limits assumed): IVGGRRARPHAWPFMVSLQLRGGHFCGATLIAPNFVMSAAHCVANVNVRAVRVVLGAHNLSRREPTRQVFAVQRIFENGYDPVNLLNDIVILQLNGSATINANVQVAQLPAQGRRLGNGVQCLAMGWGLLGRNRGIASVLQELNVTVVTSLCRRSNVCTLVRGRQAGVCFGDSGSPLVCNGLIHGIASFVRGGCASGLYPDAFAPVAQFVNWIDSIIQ
Assay: Inhibition of human polymorphonuclear leukocyte (granulocyte) elastase via hydrolysis of Boc-AAPAN or Boc-AAPVN
Format: biochemical
Conditions: for Ki: Table I, read-out: Ki, concentration of the inhibitor giving 50% of the control enzyme activity

[1] = pH 7.5, Table II, (per mole per second), read-out: kobs/I, second order rate constant of inactivation of the enzyme
[2] = pH 7.5, read-out: kobs/I, second order rate constant of inactivation of the enzyme
[3] = pH 7.5, Table IV, (per mole per second), read-out: kobs/I, second order rate constant of inactivation of the enzyme

SMILES | kinact/KI [1] [M⁻¹ s⁻¹] | also measured
CCC1(CC)C(=O)N(C(=O)NCc2ccc(-c3ccccc3)cc2)C1Oc1ccc(C(=O)CCC(=O)O)cc1 (stereo not drawn) | 107000 | –
CCC1(CC)C(=O)N(C(=O)NCc2ccccc2)C1Oc1ccc(NC(=O)CCC(=O)O)cc1 (stereo not drawn) | 2570 | –
CCC1(CC)C(=O)N(C(=O)NCc2ccccc2)C1Oc1ccc(NC(C)=O)cc1 (stereo not drawn) | 3500 | –
CCC1(CC)C(=O)N(C(=O)NCc2ccccc2)C1Oc1ccc([N+](=O)[O-])cc1 (stereo not drawn) | 6850 | –
CCC1(CC)C(=O)N(C(=O)NCc2ccccc2)C1Oc1ccc([N+](C)(C)C)cc1 (stereo not drawn) | 1700 | –
CCC1(CC)C(=O)N(C(=O)NCc2ccc(C(=O)O)cc2)C1Oc1ccccc1 (stereo not drawn) | 1500 | –
CCCC1(CC)C(=O)N(C(=O)NC(CC)c2ccccc2)C1Oc1ccc(CC(=O)O)cc1 (stereo not drawn) | 54000 | –
CCCC1(CC)C(=O)N(C(=O)NCc2ccc3ccccc3c2)C1Oc1ccc(C(=O)O)cc1 (stereo not drawn) | 51000 | –
CCCC1(CC)C(=O)N(C(=O)NCc2cccc(C(F)(F)F)c2)C1Oc1ccc(C(=O)O)cc1 (stereo not drawn) | 55000 | –
CCCC1(CC)C(=O)N(C(=O)NC(CC)c2ccccc2)C1Oc1ccc(C(=O)CCC(=O)O)cc1 (stereo not drawn) | 87000 | –
CCC1(COC)C(=O)N(C(=O)NCc2ccc3ccccc3c2)C1Oc1ccc(C(=O)O)cc1 (stereo not drawn) | 50000 | –
CCC1(COC)C(=O)N(C(=O)NCc2ccc3c(c2)OCO3)C1Oc1ccc(C(=O)O)cc1 (stereo not drawn) | 17000 | –
CCC1(COC)C(=O)N(C(=O)NCc2ccccc2)C1Oc1ccc(C(=O)O)cc1 (stereo not drawn) | 1900 | –
CCC1(COC)C(=O)N(C(=O)NCc2ccc(-c3ccccc3)cc2)C1Oc1ccc(C(=O)O)cc1 (stereo not drawn) | 44500 | –
CCCC(NC(=O)N1C(=O)C(CC)(COC)C1Oc1ccc(C(=O)O)cc1)c1ccccc1 (stereo not drawn) | 75000 | –
CCC1(C)C(=O)N(C(=O)NCc2ccccc2)C1Oc1ccc(C(N)=O)cc1 (stereo not drawn) | 12500 | –
CCC1(C)C(=O)N(C(=O)NCc2cc(C)c(C(=O)O)c(C)c2)C1Oc1ccc(C(N)=O)cc1 (stereo not drawn) | 30000 | –
CCC1(C)C(=O)N(C(=O)NCC(C)c2ccccc2)C1Oc1ccc(C(=O)O)cc1 (stereo not drawn) | 2550 | –
CCC1(C)C(=O)N(C(=O)NCc2ccc(OC)c(OC)c2)C1Oc1ccc(C(=O)O)cc1 (stereo not drawn) | 11300 | –
CCC1(C)C(=O)N(C(=O)NCc2cc(C)c(C(=O)O)c(C)c2)C1Oc1ccc(C(=O)O)cc1 (stereo not drawn) | 5600 | –
CCC1(C)C(=O)N(C(=O)NC(C)c2ccccc2)C1Oc1ccc(C(=O)O)cc1 (stereo not drawn) | 15000 | –
CCC(NC(=O)N1C(=O)C(C)(CC)C1Oc1ccc(C(=O)O)cc1)c1ccsc1 (stereo not drawn) | 78800 | –

SMILES | kinact/KI [1] [M⁻¹ s⁻¹] | also measured
CCC(NC(=O)N1C(=O)C(C)(CC)C1Oc1ccc(C(=O)O)cc1)c1ccc2occc2c1 (stereo not drawn) | 750000 | –
CCC1C(=O)N(C(=O)Nc2ccc(C(=O)O)cc2)C1Oc1ccc(C(=O)O)cc1 (stereo not drawn) | 13600 | –
CCCC1(CC)C(=O)N(C(=O)NCc2ccccc2)C1Oc1ccc(C(=O)O)cc1 (stereo not drawn) | 3280 | –
CCCC1(CCC)C(=O)N(C(=O)NCc2ccccc2)C1Oc1ccc(C(=O)O)cc1 (stereo not drawn) | 2500 | –
CCCC1(C)C(=O)N(C(=O)NCc2ccccc2)C1Oc1ccc(C(=O)O)cc1 (stereo not drawn) | – | kinact/KI [2]: 1900 M⁻¹ s⁻¹
C=CCC1C(=O)N(C(=O)NCc2ccccc2)C1Oc1ccc(C(=O)O)cc1 (stereo not drawn) | 5400 | –
CCC1(Cc2ccccc2)C(=O)N(C(=O)NCc2ccccc2)C1Oc1ccc(C(=O)O)cc1 (stereo not drawn) | 87 | –
C=CCC1(CC)C(=O)N(C(=O)NCc2ccccc2)C1Oc1ccc(C(=O)O)cc1 (stereo not drawn) | 1970 | –
O=C(O)c1ccc(OC2N(C(=O)NCc3ccccc3)C(=O)C23CCCC3)cc1 (stereo not drawn) | 1900 | –
CCC[C@@H](NC(=O)N1C(=O)C(CC)(CC)C1Oc1ccc(CC(=O)O)cc1)c1ccc2occc2c1 (stereo partly drawn) | – | kinact/KI [3]: 847000 M⁻¹ s⁻¹
CCOC(=O)c1ccc(COC(=O)N2C(=O)C(CC)(CC)C2Oc2ccc(C(=O)O)cc2)cc1 (stereo not drawn) | – | kinact/KI [3]: 14300 M⁻¹ s⁻¹
CCC1(C)C(=O)N(C(=O)N2CCc3ccccc3C2)C1Oc1ccc(C(=O)O)cc1 (stereo not drawn) | – | kinact/KI [3]: 4380 M⁻¹ s⁻¹
CCC1C(=O)N(C(=O)N(CC)Cc2ccccc2)C1Oc1ccc(C(=O)O)cc1 (stereo not drawn) | – | kinact/KI [3]: 83000 M⁻¹ s⁻¹
CCC1C(=O)N(C(=O)N(Cc2ccccc2)Cc2ccccc2)C1Oc1ccc(C(=O)O)cc1 (stereo not drawn) | – | kinact/KI [3]: 5980 M⁻¹ s⁻¹
CCOC(=O)c1ccc(COC(=O)N2C(=O)C(CC)C2Oc2ccc(C(=O)O)cc2)cc1 (stereo not drawn) | – | kinact/KI [3]: 227000 M⁻¹ s⁻¹
CCC1C(=O)N(C(C)=O)C1OC(=O)CCC(=O)O (stereo not drawn) | – | Ki: 2 µM; kinact/KI [2]: 4510 M⁻¹ s⁻¹
CCC1C(=O)N(C(=O)CCC(=O)O)C1OC(C)=O (stereo not drawn) | – | Ki: 1.43 µM; kinact/KI [2]: 2250 M⁻¹ s⁻¹
CC[C@H]1C(=O)N(S(=O)(=O)c2ccc(C)cc2)[C@H]1C(=O)N1CCCC1 (relative stereo) | – | Ki: 27.7 µM; kinact/KI [2]: 541 M⁻¹ s⁻¹
CC[C@H]1C(=O)N(C(C)=O)[C@@H]1Oc1ccc(C(=O)O)cc1 (relative stereo) | – | Ki: 3.4 µM; kinact/KI [2]: 8730 M⁻¹ s⁻¹
CC[C@H]1C(=O)N(C(=O)NC)[C@@H]1Oc1ccc(C(=O)O)cc1 (relative stereo) | – | Ki: 16.5 µM
CCOC(=O)N1C(=O)[C@H](CC)[C@H]1Oc1ccc(C(=O)O)cc1 (relative stereo) | – | Ki: 2.1 µM; kinact/KI [2]: 8680 M⁻¹ s⁻¹
